Data taken from patent publication US11117900B2 (Vertex Pharmaceuticals Incorporated, priority 2012, dated 2021).

What follows are molecules tested on HCT116 colorectal cancer cells (assay: Cisplatin sensitization assay (96 h MTS cell viability)). Conditions: Cisplatin sensitization value.
Type: cell-based
Experimental: Compounds can be screened for their ability to sensitize HCT116 colorectal cancer cells to Cisplatin using a 96 h cell viability (MTS) assay. […] Compounds and Cisplatin are then both added simultaneously to the cell media in 2-fold serial dilutions from a top final concentration of 10 μM as a full matrix of concentrations in a final cell volume of 200 μl, and the cells are then incubated at 37° C. in 5% CO2. After 96 h, 40 μl of MTS reagent (Promega G358a) is added to each well and the cells are incubated for 1 h at 37° C. in 5% CO2.
Compounds with a Cisplatin sensitization value of <0.02 μM are marked with “+++.” Compounds with a Cisplatin sensitization value >0.02 μM but <0.2 μM are marked with “++.” Compounds with a Cisplatin sensitization value >0.2 μM but <5 μM are marked with “+.”
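Note: compound concentration needed to lower the IC50 of Cisplatin alone by a set fold.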

SMILES	Cisplatin Sensitization Assay
Nc1nn2cc(F)cnc2c1C(=O)Nc1cnccc1N1CCN(C2CCOC2)CC1 (racemic) [I-N-19, (R,S)-2-amino-6-fluoro-N-(4-(4-(tetrahydrofuran-3-yl)piperazin-1-yl)pyridin-3-yl)pyrazolo[1,5-a]pyrimidine-3-carboxamide]	+++ (Compounds with a Cisplatin sensitization value of <0.02 μM are marked with “+++.”)
N#CCc1cnc2c(C(=O)Nc3cnccc3OC3CCCNC3)c(N)nn2c1 (racemic) [I-O-2, (R,S)-2-amino-6-(cyanomethyl)-N-(4-(piperidin-3-yloxy)pyridin-3-yl)pyrazolo[1,5-a]pyrimidine-3-carboxamide]	++ (Compounds with a Cisplatin sensitization value >0.02 μM but <0.2 μM are marked with “++.”)
Nc1nn2cc(F)cnc2c1C(=O)Nc1cnccc1OC1CN2CCC1CC2 (racemic) [I-O-6, (R,S)-2-amino-6-fluoro-N-(4-(quinuclidin-3-yloxy)pyridin-3-yl)pyrazolo[1,5-a]pyrimidine-3-carboxamide]	+++ (Compounds with a Cisplatin sensitization value of <0.02 μM are marked with “+++.”)
Nc1nn2cc(F)cnc2c1C(=O)Nc1cnccc1OC1CCOC1 (racemic) [I-O-15, (R,S)-2-amino-6-fluoro-N-(4-((tetrahydrofuran-3-yl)oxy)pyridin-3-yl)pyrazolo[1,5-a]pyrimidine-3-carboxamide]	+++ (Compounds with a Cisplatin sensitization value of <0.02 μM are marked with “+++.”)
N#CCc1cnc2c(C(=O)Nc3cnccc3OC3CCOC3)c(N)nn2c1 (racemic) [I-O-37, (R,S)-2-amino-6-(cyanomethyl)-N-(4-((tetrahydrofuran-3-yl)oxy)pyridin-3-yl)pyrazolo[1,5-a]pyrimidine-3-carboxamide]	+++ (Compounds with a Cisplatin sensitization value of <0.02 μM are marked with “+++.”)
CN1CCC(c2ccncc2NC(=O)c2c(N)nn3cc(F)cnc23)CC1 [I-C-1, 2-amino-6-fluoro-N-(4-(1-methylpiperidin-4-yl)pyridin-3-yl)pyrazolo[1,5-a]pyrimidine-3-carboxamide]	++ (Compounds with a Cisplatin sensitization value >0.02 μM but <0.2 μM are marked with “++.”)
Cc1ccncc1NC(=O)c1c(N)nn2cc(Cl)cnc12 [I-C-2, 2-amino-6-chloro-N-(4-methylpyridin-3-yl)pyrazolo[1,5-a]pyrimidine-3-carboxamide]	++ (Compounds with a Cisplatin sensitization value >0.02 μM but <0.2 μM are marked with “++.”)
Cc1ccncc1NC(=O)c1c(N)nn2cc(F)cnc12 [I-C-4, 2-amino-6-fluoro-N-(4-methylpyridin-3-yl)pyrazolo[1,5-a]pyrimidine-3-carboxamide]	++ (Compounds with a Cisplatin sensitization value >0.02 μM but <0.2 μM are marked with “++.”)
Nc1nn2cc(F)cnc2c1C(=O)Nc1cnccc1-c1ccccc1 [I-C-5, 2-amino-6-fluoro-N-(4-phenylpyridin-3-yl)pyrazolo[1,5-a]pyrimidine-3-carboxamide]	+++ (Compounds with a Cisplatin sensitization value of <0.02 μM are marked with “+++.”)
N#CCc1cnc2c(C(=O)Nc3cnccc3-c3ccccc3)c(N)nn2c1 [I-C-6, 2-amino-6-(cyanomethyl)-N-(4-phenylpyridin-3-yl)pyrazolo[1,5-a]pyrimidine-3-carboxamide]	+++ (Compounds with a Cisplatin sensitization value of <0.02 μM are marked with “+++.”)
Nc1nn2cc(F)cnc2c1C(=O)Nc1cncc2c1CCNC2 [I-C-7, 2-amino-6-fluoro-N-(5,6,7,8-tetrahydro-2,7-naphthyridin-4-yl)pyrazolo[1,5-a]pyrimidine-3-carboxamide]	++ (Compounds with a Cisplatin sensitization value >0.02 μM but <0.2 μM are marked with “++.”)
CN1CCc2c(cncc2NC(=O)c2c(N)nn3cc(F)cnc23)C1 [I-C-8, 2-amino-6-fluoro-N-(7-methyl-5,6,7,8-tetrahydro-2,7-naphthyridin-4-yl)pyrazolo[1,5-a]pyrimidine-3-carboxamide]	+ (Compounds with a Cisplatin sensitization value >0.2 μM but <5 μM are marked with “+.”)
